Results published in patent US11746116B2, “Antibiotic resistance breakers” (KING'S COLLEGE LONDON, priority 2017, dated 2023).
Converted amounts (≈) assume the structure as drawn. “And” between values parts separate entries of the source, which are not always exact repeats. Equal values may be shown once. Read-outs that look alike come from different tables or passages of the source.

Tests used:
EMRSA16 = assay: MIC, microdilution broth method; assay type: cell-based, Staphylococcus aureus; conditions: for MIC, EMRSA16: in µg/mL
Ab17978 = assay: MIC, microdilution broth method; assay type: cell-based; conditions: for MIC, Ab17978: ESKAPE panel, Gram-negative
M6 = assay: MIC, microdilution broth method; assay type: cell-based; conditions: for MIC, M6: ESKAPE panel, Gram-negative
AYE = assay: MIC, microdilution broth method; assay type: cell-based, Acinetobacter baumannii; conditions: for MIC, AYE: ESKAPE panel, Gram-negative, in µg/mL
MSSA9144 = assay: MIC, microdilution broth method; assay type: cell-based, Staphylococcus aureus; conditions: for MIC, MSSA9144: ESKAPE panel, Gram-positive
[1] = system: multidrug resistant strains; assay: Reserpine growth assay in several multidrug resistant strains (FIG. 27); assay type: cell-based; conditions: compared to ML-83-009 or levofloxacin
Procedure: Reserpine was added at a final concentration of 10 μg/mL (made up at 40 μg/mL in TSB, 50 μL per well). The bacteria were added at an OD of 0.01 in TSB (100 μL/well). The plate was a normal clear plate as used for MICs. OD was read every 30 minutes for 9 hours (the literature states 7 hours, but this is strain-dependent).

[2] = system: extended panel of MDR strains with known multiple target mutations; assay type: cell-based
EC12923 = assay: MIC, microdilution broth method; assay type: cell-based; conditions: for MIC, EC12923: ESKAPE panel, Gram-negative, in µg/mL
EMRSA15 = assay: MIC, microdilution broth method; assay type: cell-based, Staphylococcus aureus; conditions: for MIC, EMRSA15: in µg/mL; for MIC: Staphylococcus aureus, Staphylococcus aureus (EMRSA15), read-out: MIC
KP13368 = assay: MIC, microdilution broth method; assay type: cell-based; conditions: for MIC, KP13368: ESKAPE panel, Gram-negative
VRE12201 = assay: MIC, microdilution broth method; assay type: cell-based, Enterococcus faecalis; conditions: for MIC, VRE12201: ESKAPE panel, Gram-positive
PA13437 = assay: MIC, microdilution broth method; assay type: cell-based; conditions: for MIC, PA13437: ESKAPE panel, Gram-negative
VSE775 = assay: MIC, microdilution broth method; assay type: cell-based, Enterococcus faecalis; design: MIC, VSE775: unit not given beside the values; conditions: for MIC, VSE775: ESKAPE panel, Gram-positive
PA01 = assay: MIC, microdilution broth method; assay type: cell-based, Pseudomonas aeruginosa; conditions: for MIC, PA01: ESKAPE panel, Gram-negative
VRE12204 = assay: MIC, microdilution broth method; assay type: cell-based, Enterococcus faecium; conditions: in µg/mL; for MIC, VRE12204: ESKAPE panel, Gram-positive
SA4 = assay: MIC, extended Gram-positive panel; assay type: cell-based, S. aureus; conditions: S. aureus SA4; gyrA, 84:S => L; grlA, 80:S => F
[3] = system: Staphylococcus aureus ATCC29213; assay: Murine thigh infection model, thigh bacterial burden; assay type: in vivo; conditions: individual thigh samples, ICR mice
MSSA 9144 strain = assay: Reserpine (growth) assay for efflux; assay type: cell-based, Staphylococcus aureus; conditions: multidrug-resistant MSSA 9144 strain; compound 0.25×MIC, reserpine 10 μg/mL
EMRSA 15 strain = assay: Reserpine (growth) assay for efflux; assay type: cell-based, Staphylococcus aureus; conditions: multidrug-resistant EMRSA 15 strain; compound 0.25×MIC, reserpine 10 μg/mL
SE1 = assay type: cell-based, S. epidermidis; conditions: S. epidermidis SE1; in µg/mL
SA3 = assay type: cell-based, S. aureus; conditions: S. aureus SA3; gyrA, 84:S => L; grlA, 80:S => F
SA2 = assay: MIC, extended Gram-positive panel; assay type: cell-based, S. aureus; conditions: S. aureus SA2
SA9 = assay type: cell-based, S. aureus; conditions: S. aureus SA9; gyrA, 84:S => L; grlA, 80:S => F
SA5 = assay type: cell-based, S. aureus; conditions: S. aureus SA5; gyrA, 84:S => L; grlA, 80:S => F
SH1 = assay: MIC, extended Gram-positive panel; assay type: cell-based, S. haemolyticus; conditions: S. haemolyticus SH1
SA6 = assay: MIC, extended Gram-positive panel; assay type: cell-based, S. aureus; conditions: S. aureus SA6; gyrA, 84:S => V; grlA, 80:S => F
SA8 = assay: MIC, extended Gram-positive panel; assay type: cell-based, S. aureus; conditions: S. aureus SA8; gyrA, 84:S => L; grlA, 80:S => F
EF2 = assay: MIC, extended Gram-positive panel; assay type: cell-based, E.faecium; conditions: E.faecium EF2; in µg/mL
SA1 = assay: MIC, extended Gram-positive panel; assay type: cell-based, S. aureus; conditions: S. aureus SA1; gyrA, 84:S => L; grlA, 80:S => F
EF1 = assay: MIC, extended Gram-positive panel; assay type: cell-based, E.faecalis; conditions: E.faecalis EF1
SA7 = assay: MIC, extended Gram-positive panel; assay type: cell-based, S. aureus; conditions: S. aureus SA7; gyrA, 84:S => L; grlA, 80:S => F
[4] = Ab17978, Normal (no PMBN), in µg/mL

C[C@H]1COc2c(N3CC[C@@H](Nc4ncccn4)C3)c(F)cc3c(=O)c(C(=O)O)cn1c23 [KSN-L22]
MIC, EMRSA16 (EMRSA16; EMRSA16 (Table 16, role of the terminal pyrimidine ring)): 1 | MIC, EMRSA16 (EMRSA16; ESKAPE panel, Gram-positive): 1 | MIC (EMRSA16; S. aureus EMRSA16, gyrA, 84:S => L, grlA, 80:S => F (Table 11)): 1 | MIC (EMRSA16; Staphylococcus aureus (EMRSA16), Gram-Positive (Table 14)): 1 µg/mL (≈ 2.35 µM) | MIC (EMRSA16; Staphylococcus aureus (EMRSA16), Table 12, read-out: MIC): 1 µg/mL (≈ 2.35 µM) | MIC (Ab17978; Acinetobacter baumannii): 0.125 µg/mL (≈ 0.294 µM) | MIC, Ab17978 (Ab17978; in µg/mL): 0.125 | MIC, M6 (M6; in µg/mL): 1 | MIC (M6; Klebsiella pneumoniae (M6), Gram-Negative, read-out: MIC): 1 µg/mL (≈ 2.35 µM) | MIC (AYE; Acinetobacter baumannii (AYE), Gram-Negative, read-out: MIC): 4 µg/mL (≈ 9.4 µM) | MIC, AYE (AYE): 4 | MIC, MSSA9144 (MSSA9144; in µg/mL): ≤0.03 | MIC (MSSA9144; Staphylococcus aureus (MSSA9144), Gram-Positive, read-out: MIC): ≤ 0.03 µg/mL | efflux from the bacteria (reserpine growth assay) [1]: reduced efflux | MIC ([2]; E. faecalis EF 602): 0.25 µg/mL (≈ 0.588 µM) | MIC ([2]; E. faecium EF 205): 0.12 µg/mL (≈ 0.282 µM) | MIC ([2]; S. aureus SA 046, gyrA, 84:S => L, grlA, 80:S => F): 1 µg/mL (≈ 2.35 µM) | MIC ([2]; S. aureus SA 105, gyrA, 84:S => L, grlA, 80:S => F): 1 µg/mL (≈ 2.35 µM) | MIC ([2]; S. aureus SA 215, gyrA, 84:S => L, grlA, 80:S => F): 1 µg/mL (≈ 2.35 µM) | MIC ([2]; S. aureus SA 275, gyrA, 84:S => V, grlA, 80:S => F): 1 µg/mL (≈ 2.35 µM) | MIC ([2]; S. aureus SA 318, gyrA, 84:S => L, grlA, 80:S => F): 1 µg/mL (≈ 2.35 µM) | MIC ([2]; S. aureus SA 388, gyrA, 84:S => L, grlA, 80:S => F): 1 µg/mL (≈ 2.35 µM) | MIC, EC12923 (EC12923): 0.5 | MIC (EC12923; Escherichia coli (EC12923), Gram-Negative, read-out: MIC): 0.5 µg/mL (≈ 1.18 µM) | MIC, EMRSA15 (EMRSA15; EMRSA15 (Table 16, role of the terminal pyrimidine ring)): 0.5-1 | MIC, EMRSA15 (EMRSA15; ESKAPE panel, Gram-positive): 0.5 | MIC (EMRSA15; Gram-Positive (Table 14)): 0.5 µg/mL (≈ 1.18 µM) | MIC (EMRSA15; Table 12): 0.5 to 1 µg/mL (≈ 1.18 to 2.35 µM) | MIC, KP13368 (KP13368): 4 µg/mL (≈ 9.4 µM) | MIC (KP13368; Klebsiella pneumoniae (KP13368), Gram-Negative, read-out: MIC): 4 µg/mL (≈ 9.4 µM) | MIC, VRE12201 (VRE12201; in µg/mL): 0.06 | MIC (VRE12201; Enterococcus faecalis, Enterococcus (VRE12201), Gram-Positive, read-out: MIC): 0.06 µg/mL (≈ 0.141 µM) | MIC, PA13437 (PA13437): > 32 µg/mL | MIC, VSE775 (VSE775): 0.06 | MIC (VSE775; Enterococcus faecalis, Enterococcus (VRE775), Gram-Positive, read-out: MIC): 0.06 µg/mL (≈ 0.141 µM) | MIC, PA01 (PA01; in µg/mL): 4 | MIC (PA01; Pseudomonas aeruginosa (PA01), Gram-Negative, read-out: MIC): 4 µg/mL (≈ 9.4 µM) | MIC, VRE12204 (VRE12204): 1

CCn1cc(C(=O)O)c(=O)c2cc(F)c(N3CCNCC3)cc21 [NOR]
MIC (SA4): 64 µg/mL (≈ 200 µM)

C[C@H]1COc2c(N3CCC(Nc4ncccn4)C3)c(F)cc3c(=O)c(C(=O)O)cn1c23 (stereo partly drawn) [KSN-82-L7, (3S)-9-fluoro-3-methyl-7-oxo-10-(3-(pyrimidin-2-ylamino)pyrrolidin-1-yl)-2,3-dihydro-7H-[1,4]oxazino[2,3,4-ij]quinoline-6-carboxylic acid]
Bacterial burden data ([3]; 20 mg/kg): 6.42E+02 CFU/g and 1.94E+03 CFU/g and 1.60E+03 CFU/g and 3.05E+03 CFU/g and 1.51E+03 CFU/g and 1.18E+04 CFU/g and 2.48E+03 CFU/g and 3.92E+03 CFU/g and 5.78E+02 CFU/g and 1.80E+03 CFU/g | Bacterial burden data ([3]; 50 mg/kg): 5.94E+02 CFU/g and 2.63E+03 CFU/g and 2.00E+03 CFU/g and 1.44E+03 CFU/g and 9.34E+02 CFU/g and 1.14E+03 CFU/g and 2.58E+03 CFU/g and 1.98E+03 CFU/g and 5.78E+02 CFU/g and 1.70E+03 CFU/g | MIC, EMRSA16 (EMRSA16; ESKAPE panel, Gram-positive): 4 | MIC, Ab17978 (Ab17978; in µg/mL): 0.5 | MIC, M6 (M6; in µg/mL): 4-8 | MIC, AYE (AYE): 16-32 | MIC, MSSA9144 (MSSA9144; in µg/mL): 0.06 | MIC, EC12923 (EC12923): 1 | MIC, EMRSA15 (EMRSA15; ESKAPE panel, Gram-positive): 4 | MIC, KP13368 (KP13368): 16 µg/mL (≈ 37.6 µM) | MIC, VRE12201 (VRE12201; in µg/mL): 0.5 | MIC, PA13437 (PA13437): > 32 µg/mL | MIC, VSE775 (VSE775): 0.5 | MIC, PA01 (PA01; in µg/mL): 8-32 | MIC, VRE12204 (VRE12204): 4

CCn1cc(C(=O)O)c(=O)c2cc(F)c(N3CCNCC3)cc21 [Norfloxacin, norfloxacin, reference compound]
MIC (Ab17978; [4]): 4 | efflux by the strain (reserpine assay) (MSSA 9144 strain): effluxed | MIC (M6; M6, Normal (no PMBN), in µg/mL): 0.25 | MIC (MSSA9144; MSSA9144, in µg/mL): 2 | MIC (KP13368; KP13368, Normal (no PMBN), in µg/mL): 4 | efflux by the strain (reserpine assay) (EMRSA 15 strain): effluxed | MIC (VRE12201; VRE12201, in µg/mL): 4 | MIC (VSE775; VSE775, in µg/mL): 8 | MIC (PA01; PA01, Normal (no PMBN), in µg/mL): 2 | MIC (VRE12204; VRE12204): 4

O=C(O)c1cn(C2CC2)c2cc(N3CCN(Cc4cccc5ccccc45)CC3)c(F)cc2c1=O [ML-77-005]
MIC (SE1): 0.25-2 | MIC (SA4): 2 µg/mL (≈ 4.24 µM) | MIC (SA3): 2 µg/mL (≈ 4.24 µM) | MIC (Ab17978; Ab17978, +PMBN): −.12-0.25 | MIC (Ab17978; [4]): 4 | MIC (SA2): 0.5 µg/mL (≈ 1.06 µM) | MIC (SA9): 2 µg/mL (≈ 4.24 µM) | MIC (SA5): 2 µg/mL (≈ 4.24 µM) | MIC (SH1): 4 µg/mL (≈ 8.48 µM) | MIC (SA6): 2 µg/mL (≈ 4.24 µM) | MIC (M6; M6, +PMBN, in µg/mL): 0.5 | MIC (M6; M6, Normal (no PMBN), in µg/mL): 32-64 | MIC (MSSA9144; MSSA9144, in µg/mL): 0.25-8 | MIC (SA8): 2 µg/mL (≈ 4.24 µM) | MIC (EF2): 2 | MIC (VRE12201; VRE12201, in µg/mL): 0.5 | MIC (PA13437; PA13437, +PMBN): 32 µg/mL (≈ 67.9 µM) | MIC (SA1): 2 µg/mL (≈ 4.24 µM) | MIC (PA01; PA01, +PMBN, in µg/mL): <0.12-0.25 | MIC (EF1): 2 µg/mL (≈ 4.24 µM) | MIC (SA7): 2 µg/mL (≈ 4.24 µM)
